According to US7560458B2, “Triazolopyrimidine derivatives as glycogen synthase kinase 3 inhibitors” (Janssen Pharmaceutica, N.V., priority 2003, dated 2009):
Where a name gives a salt, the structure may show the parent alone.

Experiments:
GSK3alpha = GSK3alpha (Homo sapiens, UniProt P49840); test: GSK3alpha assay (same as the GSK3beta assay, GSK3alpha 0.25 ng/μl); assay type: biochemical; conditions: −log IC50 (M); given as ranges (>8; 7-8; <7); read-out: pIC50 (GSK3alpha) (converted)
Method in brief: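 GSK3α at 0.25 ng/μl phosphorylated 5 μM biotinylated phospho-CREB peptide with 1 μM ATP and 33P-ATP for 1 h at room temperature, in 25 mM Tris pH 7.4 with 10 mM MgCl2 and 1 mM DTT. Phosphorylated peptide was captured on streptavidin SPA beads and counted. IC50 was taken from dose-response curves.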

GSK3β = GSK3β (Homo sapiens, UniProt P49841); test: GSK3beta assay (SPA, biotinylated phosphorylated CREB peptide, ATP-P33); assay type: biochemical; conditions: −log IC50 (M); given as ranges (>8; 7-8; <7); read-out: pIC50 (GSK3beta) (converted)
Method in brief: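 Radiometric SPA at room temperature, pH 7.4 Tris/MgCl2/DTT/BSA/glycerol, with 5.7 ng/μl GSK3β, 5 μM biotinylated phospho-CREB peptide, 1 μM ATP plus 33P-ATP for 1 h. Stopped with streptavidin SPA beads, counted after overnight settling; % inhibition versus no-compound control, IC50 from dose-response curve.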

GSK3β, sequence (P49841 whole entry, species assumed): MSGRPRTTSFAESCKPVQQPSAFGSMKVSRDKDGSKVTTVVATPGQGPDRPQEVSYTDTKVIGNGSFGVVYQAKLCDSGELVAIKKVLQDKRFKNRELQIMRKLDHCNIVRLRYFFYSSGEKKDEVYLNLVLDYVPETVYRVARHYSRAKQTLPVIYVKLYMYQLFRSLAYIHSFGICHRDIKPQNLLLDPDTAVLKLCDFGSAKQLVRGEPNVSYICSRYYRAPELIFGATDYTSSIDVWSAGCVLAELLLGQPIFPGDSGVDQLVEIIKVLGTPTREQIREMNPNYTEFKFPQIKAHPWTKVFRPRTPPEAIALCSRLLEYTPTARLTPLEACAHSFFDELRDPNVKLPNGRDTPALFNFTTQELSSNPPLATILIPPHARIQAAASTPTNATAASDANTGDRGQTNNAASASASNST
GSK3alpha, sequence (P49840 whole entry, species assumed): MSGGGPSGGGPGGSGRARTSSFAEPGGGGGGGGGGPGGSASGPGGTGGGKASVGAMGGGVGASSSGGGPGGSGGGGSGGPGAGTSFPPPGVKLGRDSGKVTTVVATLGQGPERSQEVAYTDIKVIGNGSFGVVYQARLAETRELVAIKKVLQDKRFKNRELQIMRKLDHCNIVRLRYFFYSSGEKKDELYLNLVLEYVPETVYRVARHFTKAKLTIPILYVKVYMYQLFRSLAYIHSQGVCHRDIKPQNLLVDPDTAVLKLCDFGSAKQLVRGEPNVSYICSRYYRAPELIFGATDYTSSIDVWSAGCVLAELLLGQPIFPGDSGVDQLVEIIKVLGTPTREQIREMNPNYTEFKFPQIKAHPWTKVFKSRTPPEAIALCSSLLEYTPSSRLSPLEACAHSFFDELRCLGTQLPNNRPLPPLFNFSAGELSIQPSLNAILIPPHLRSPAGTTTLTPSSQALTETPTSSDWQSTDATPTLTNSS

| melting point | IC50 (GSK3alpha) | IC50 (GSK3β) | SMILES |
| --- | --- | --- | --- |
|  | < 1e-08 M | < 1e-08 M | O=C(O)c1ccc(Nc2ncc3nnn(-c4cccc(CCO)c4)c3n2)cc1 [Compound 257] |
|  | < 1e-08 M | < 1e-08 M | NC(=O)c1ccc(Nc2ncc3nnn(-c4cccc(CCO)c4)c3n2)cc1 [Compound 259] |
|  | < 1e-08 M | < 1e-08 M | COCCOc1cccc(Nc2ncc3nnn(-c4cccc(CCO)c4)c3n2)c1 [Compound 262] |
|  | < 1e-08 M | < 1e-08 M | N#CCc1cccc(-n2nnc3cnc(Nc4ccc(C(N)=O)cc4)nc32)c1 [Compound 274] |
|  | < 1e-08 M | < 1e-08 M | COCCOCc1cccc(-n2nnc3cnc(Nc4ccc(C(N)=O)cc4)nc32)c1 [Compound 286] |
|  | < 1e-08 M | < 1e-08 M | COCCOCc1cccc(-n2nnc3cnc(Nc4ccc(CCO)cc4)nc32)c1 [Compound 289] |
|  | 1e-08 to 1e-07 M | 1e-08 to 1e-07 M | CN(C)CCOc1ccc(Nc2ncc3nnn(-c4cccc(F)c4)c3n2)cc1 [Compound 296] |
|  | < 1e-08 M | 1e-08 to 1e-07 M | COCCOc1cccc(-n2nnc3cnc(Nc4ccc(F)cc4)nc32)c1 [Compound 301] |
|  | < 1e-08 M | 1e-08 to 1e-07 M | COCCOc1cccc(-n2nnc3cnc(Nc4ccc(CNC(=O)OC(C)(C)C)cc4)nc32)c1 [Compound 302] |
|  | < 1e-08 M | 1e-08 to 1e-07 M | COCCOc1cccc(-n2nnc3cnc(Nc4cccc(CNC(=O)OC(C)(C)C)c4)nc32)c1 [Compound 303] |
|  | < 1e-08 M | 1e-08 to 1e-07 M | COCCOc1cccc(-n2nnc3cnc(Nc4ccc(CN)cc4)nc32)c1 [Compound 305] |
|  | < 1e-08 M | < 1e-08 M | NC(=O)c1ccc(Nc2ncc3nnn(-c4cccc(F)c4)c3n2)cc1 [Compound 307] |
|  | < 1e-08 M | < 1e-08 M | CNC(=O)c1ccc(Nc2ncc3nnn(-c4cccc(F)c4)c3n2)cc1 [Compound 308] |
|  | < 1e-08 M | < 1e-08 M | CN(C)C(=O)c1ccc(Nc2ncc3nnn(-c4cccc(F)c4)c3n2)cc1 [Compound 309] |
|  | < 1e-08 M | 1e-08 to 1e-07 M | COCCOc1cccc(-n2nnc3cnc(Nc4ccc(CNCC(F)(F)F)cc4)nc32)c1 [Compound 312] |
|  | 1e-08 to 1e-07 M | 1e-08 to 1e-07 M | COCCOCc1cccc(-n2nnc3cnc(Nc4ccc(CN)cc4)nc32)c1 [Compound 314] |
|  | < 1e-08 M | < 1e-08 M | COCc1cccc(-n2nnc3cnc(Nc4ccc(CN)cc4)nc32)c1 [Compound 315] |

| melting point | IC50 (GSK3alpha) | IC50 (GSK3β) | SMILES |
| --- | --- | --- | --- |
|  | 1e-08 to 1e-07 M | 1e-08 to 1e-07 M | COCCOCc1cccc(-n2nnc3cnc(Nc4ccc(CCN)cc4)nc32)c1 [Compound 318] |
|  | 1e-08 to 1e-07 M | 1e-08 to 1e-07 M | COCCOc1cccc(-n2nnc3cnc(Nc4ccc(CCN)cc4)nc32)c1 [Compound 319] |
|  | 1e-08 to 1e-07 M | 1e-08 to 1e-07 M | COCc1cccc(-n2nnc3cnc(Nc4ccc(CCN)cc4)nc32)c1 [Compound 320] |
|  | < 1e-08 M | 1e-08 to 1e-07 M | CNC(=O)c1ccc(Nc2ncc3nnn(-c4cccc(OCCOC)c4)c3n2)cc1 [Compound 325] |
|  | 1e-08 to 1e-07 M | 1e-08 to 1e-07 M | COCCOc1cccc(-n2nnc3cnc(Nc4ccc(C(=O)N(C)C)cc4)nc32)c1 [Compound 326] |
|  | < 1e-08 M | < 1e-08 M | CNC(=O)c1ccc(Nc2ncc3nnn(-c4cccc(COCCOC)c4)c3n2)cc1 [Compound 327] |
|  | < 1e-08 M | < 1e-08 M | COCCOCc1cccc(-n2nnc3cnc(Nc4ccc(C(=O)N(C)C)cc4)nc32)c1 [Compound 328] |
|  | < 1e-08 M | < 1e-08 M | CNC(=O)c1ccc(Nc2ncc3nnn(-c4cccc(CCO)c4)c3n2)cc1 [Compound 329] |
|  | < 1e-08 M | < 1e-08 M | CN(C)C(=O)c1ccc(Nc2ncc3nnn(-c4cccc(CCO)c4)c3n2)cc1 [Compound 330] |
|  | 1e-08 to 1e-07 M | 1e-08 to 1e-07 M | CNC(=O)c1ccc(Nc2ncc3nnn(-c4cccc(CC#N)c4)c3n2)cc1 [Compound 331] |
|  | < 1e-08 M | < 1e-08 M | CN(C)C(=O)c1ccc(Nc2ncc3nnn(-c4cccc(CC#N)c4)c3n2)cc1 [Compound 332] |
|  | < 1e-08 M | < 1e-08 M | CNC(=O)c1ccc(Nc2ncc3nnn(-c4cccc(COC)c4)c3n2)cc1 [Compound 333] |
|  | < 1e-08 M | < 1e-08 M | COCc1cccc(-n2nnc3cnc(Nc4ccc(C(=O)N(C)C)cc4)nc32)c1 [Compound 334] |
|  | 1e-08 to 1e-07 M | 1e-08 to 1e-07 M | COCCOc1cccc(-n2nnc3cnc(Nc4ccc(Cl)cc4)nc32)c1 [Compound 335] |
|  | < 1e-08 M | < 1e-08 M | COCCOCc1cccc(-n2nnc3cnc(Nc4ccc(Cl)cc4)nc32)c1 [Compound 336] |
|  | < 1e-08 M | < 1e-08 M | COCc1cccc(-n2nnc3cnc(Nc4ccc(Cl)cc4)nc32)c1 [Compound 338] |

The next lines start with the compound.

| SMILES | melting point | IC50 (GSK3alpha) | IC50 (GSK3β) |
| --- | --- | --- | --- |
| Nc1cccc(Nc2ncc3nnn(-c4cccc(F)c4)c3n2)c1 (as salt: HCl) [Compound 12] | 224 °C |  |  |
| CC(=O)NCc1cccc(Nc2ncc3nnn(-c4cccc(C(=O)O)c4)c3n2)c1 [Compound 76] | > 260 °C |  |  |
| N#Cc1cccc(Nc2ncc3nnn(-c4cccc(CCO)c4)c3n2)c1 [Compound 258] |  | < 1e-08 M | < 1e-08 M |
| OCCc1ccc(Nc2ncc3nnn(-c4cccc(CCO)c4)c3n2)cc1 [Compound 260] |  | < 1e-08 M | < 1e-08 M |
| OCCc1cccc(-n2nnc3cnc(Nc4ccc(F)cc4)nc32)c1 [Compound 261] |  | < 1e-08 M | < 1e-08 M |
| CS(=O)(=O)Nc1cccc(Nc2ncc3nnn(-c4cccc(CC#N)c4)c3n2)c1 [Compound 264] |  | < 1e-08 M | < 1e-08 M |
| N#CCc1cccc(-n2nnc3cnc(Nc4ccc(F)cc4)nc32)c1 [Compound 265] |  | < 1e-08 M | < 1e-08 M |
| COCc1cccc(Nc2ncc3nnn(-c4cccc(CC#N)c4)c3n2)c1 [Compound 266] |  | < 1e-08 M | < 1e-08 M |
| COc1ccc(Nc2ncc3nnn(-c4cccc(CC#N)c4)c3n2)cn1 [Compound 267] |  | < 1e-08 M | < 1e-08 M |
| N#CCc1cccc(-n2nnc3cnc(Nc4ccc(CCO)cc4)nc32)c1 [Compound 268] |  | < 1e-08 M | < 1e-08 M |
| COC(=O)c1cc(Nc2ncc3nnn(-c4cccc(CC#N)c4)c3n2)ccc1NC(C)=O [Compound 269] |  | < 1e-08 M | < 1e-08 M |
| CC(C)(C)OC(=O)NCc1cccc(-n2nnc3cnc(Nc4ccc(F)cc4)nc32)c1 [Compound 270] |  | < 1e-08 M | < 1e-08 M |
| NC(=O)Cc1cccc(-n2nnc3cnc(Nc4cccc(C(=O)NCCO)c4)nc32)c1 [Compound 271] |  | < 1e-08 M | < 1e-08 M |
| N#CCc1cccc(-n2nnc3cnc(Nc4cccc(C#N)c4)nc32)c1 [Compound 272] |  | < 1e-08 M | < 1e-08 M |
| CS(=O)(=O)Nc1cccc(Nc2ncc3nnn(-c4cccc(CC(N)=O)c4)c3n2)c1 [Compound 273] |  | < 1e-08 M | < 1e-08 M |
| N#CCc1cccc(-n2nnc3cnc(Nc4cccc(C(=O)NCCO)c4)nc32)c1 [Compound 275] |  | < 1e-08 M | < 1e-08 M |
| N#CCc1cccc(-n2nnc3cnc(Nc4cccc(CCO)c4)nc32)c1 [Compound 276] |  | < 1e-08 M | < 1e-08 M |

| SMILES | melting point | IC50 (GSK3alpha) | IC50 (GSK3β) |
| --- | --- | --- | --- |
| N#CCc1cccc(-n2nnc3cnc(Nc4cccc(CO)c4)nc32)c1 [Compound 277] |  | < 1e-08 M | < 1e-08 M |
| CC(O)c1cccc(Nc2ncc3nnn(-c4cccc(CC#N)c4)c3n2)c1 (stereo not drawn) [Compound 278] |  | < 1e-08 M | < 1e-08 M |
| NCc1cccc(-n2nnc3cnc(Nc4ccc(F)cc4)nc32)c1 [Compound 279] |  | 1e-08 to 1e-07 M | 1e-08 to 1e-07 M |
| N#Cc1ccc(Nc2ncc3nnn(-c4cccc(CCO)c4)c3n2)cc1 [Compound 285] |  | < 1e-08 M | < 1e-08 M |
| OCCc1ccc(-n2nnc3cnc(Nc4ccc(F)cc4)nc32)cc1 [Compound 291] |  | < 1e-08 M | 1e-08 to 1e-07 M |
| OCCc1ccc(Nc2ncc3nnn(-c4ccc(CCO)cc4)c3n2)cc1 [Compound 293] |  | < 1e-08 M | > 1e-07 M |
| CC(C)(C)OC(=O)NCc1ccc(Nc2ncc3nnn(-c4cccc(F)c4)c3n2)cc1 [Compound 294] |  | < 1e-08 M | < 1e-08 M |
| NCc1ccc(Nc2ncc3nnn(-c4cccc(F)c4)c3n2)cc1 [Compound 295] |  | < 1e-08 M | 1e-08 M |
| COCc1cccc(-n2nnc3cnc(Nc4ccc(C(=O)O)c(OC)c4)nc32)c1 [Compound 304] |  | < 1e-08 M | < 1e-08 M |
| Fc1cccc(-n2nnc3cnc(Nc4ccc(CNCC(F)(F)F)cc4)nc32)c1 [Compound 306] |  | < 1e-08 M | < 1e-08 M |
| NCc1ccc(Nc2ncc3nnn(-c4cccc(CCO)c4)c3n2)cc1 [Compound 310] |  | < 1e-08 M | < 1e-08 M |
| N#CCc1cccc(-n2nnc3cnc(Nc4ccc(CNCC(F)(F)F)cc4)nc32)c1 [Compound 311] |  | < 1e-08 M | < 1e-08 M |
| N#CCc1cccc(-n2nnc3cnc(Nc4ccc(CN)cc4)nc32)c1 [Compound 313] |  | < 1e-08 M | < 1e-08 M |
| NCCc1ccc(Nc2ncc3nnn(-c4cccc(CCO)c4)c3n2)cc1 [Compound 316] |  | < 1e-08 M | < 1e-08 M |
| N#CCc1cccc(-n2nnc3cnc(Nc4ccc(CCN)cc4)nc32)c1 [Compound 317] |  | < 1e-08 M | < 1e-08 M |
| NCCc1ccc(Nc2ncc3nnn(-c4cccc(F)c4)c3n2)cc1 [Compound 321] |  | 1e-08 to 1e-07 M | 1e-08 to 1e-07 M |
| N#CCc1cccc(-n2nnc3cnc(Nc4ccc(Cl)cc4)nc32)c1 [Compound 337] |  | < 1e-08 M | < 1e-08 M |
